Results taken from patent US20040102423A1, “Spironolactone and angiotensin II antagonist combination therapy for treatment of congestive heart failure” (G.D. Searle & Co., priority 1995, published 2004).
Like-named read-outs stand apart in the source and are kept apart here.

Tests used:
rabbit aortic rings = experiment: Assay B: In vitro vascular smooth muscle response for AII (antagonist activity, pA2); assay type: cell-based; details: Oryctolagus cuniculus, two values in a cell = two determinations
In short: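 Endothelium-denuded thoracic aortic rings from male New Zealand white rabbits, in oxygenated Krebs at 37° C. under ~1 g tension, gave isometric AII contraction curves (3×10^−10 to 1×10^−5 M).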

pressor response to AII = experiment: Assay C: In vivo intragastric pressor assay response for AII antagonists; parameters: species or system Sprague-Dawley rats; details: in vivo pressor response; for inhibition in vivo at 3 mg/kg / inhibition in vivo at 10 mg/kg / inhibition in vivo at 30 mg/kg / inhibition in vivo at 100 mg/kg: Rattus norvegicus; for inhibition in vivo at 30 mg/kg: read-out: Assay C Inhibition
[1] = target: angiotensin II AT1 receptor; experiment: Assay A: Angiotensin II binding activity, rat uterine membrane preparation, 125I-AII displacement
[2] = intraduodenal, 10 mg/kg intraduodenally
[3] = intraduodenal, 30 mg/kg intraduodenally
[4] = intraduodenal, 3 mg/kg intraduodenally
[5] = intraduodenal, 100 mg/kg intraduodenally

IC50 [1] [nM]	Compound	Kb (rabbit aortic rings) [nM]	inhibition in vivo at 3 mg/kg (pressor response to AII; po, 3 mg/kg intragastrically) [%]	Assay C Duration (pressor response to AII; 3 mg/kg intragastrically) [min]	also measured
	CCCCc1nc2c(CCC)nnc(O)c2n1Cc1ccc(-c2ccccc2-c2nnn[nH]2)cc1 [Compound 124]	0.38	45	>180	
10	CCCCn1nc(C=O)nc1Cc1ccc(-c2ccccc2-c2nnn[nH]2)nc1 [Compound 190]	13.5	10	180	
6.5	CCCn1nc(C(OC)OC)nc1Cc1ccc(-c2ccccc2-c2nnn[nH]2)nc1 [Compound 185]	1.51	50	>180	
7.6	CCCn1cc(CC(C)C)n(Cc2ccc(-c3ccccc3-c3nnn[nH]3)nc2)c1=O [Compound 198]	1.74	35	>180	
33	CCCCc1nc(-c2ccccc2OC)nn1Cc1ccc(-c2ccccc2-c2nnn[nH]2)nc1 [Compound 276]	1.95	< 20		
150	CCCCc1nc(CCCC)n(Cc2ccc(-n3c(Br)ccc3-c3nnn[nH]3)cc2)n1 [Compound 152]	34.7	10	140	
45	CCCCc1nn(CCCCC(=O)OC)c(=O)n1Cc1ccc(-c2ccccc2-c2nn[nH]n2)cc1 [Compound 111]	1			inhibition in vivo at 30 mg/kg (pressor response to AII; [3]): 87%; Assay C Duration (pressor response to AII; 30 mg/kg intraduodenally): 160 min
3.2	CCCCc1nc(CCC)n(Cc2ccc(-c3ccccc3-c3nnn[nH]3)cc2)n1 [Compound 26]	0.148			inhibition in vivo at 10 mg/kg (pressor response to AII; po, 10 mg/kg intragastrically): 50%; Assay C Duration (pressor response to AII; 10 mg/kg intragastrically): >180 min
9.8	CCCn1nc(C(C)(F)F)nc1Cc1ccc(-c2ccccc2-c2nnn[nH]2)nc1 [Compound 176]	20.4	10	150	
12	CCCCc1nn(C(C)(C)C(=O)c2ccccc2)c(=O)n1Cc1ccc(-c2ccccc2-c2nn[nH]n2)cc1 [Compound 113]	3.98			inhibition in vivo at 10 mg/kg (pressor response to AII; po, 10 mg/kg intragastrically): 60%; Assay C Duration (pressor response to AII; 10 mg/kg intragastrically): 180 min
5	CCCCc1cn(CCC(C)C)c(=O)n1Cc1ccc(-c2ccccc2-c2nnn[nH]2)nc1 [Compound 209]	0.389	25	>180	
13	CCCCc1nc(-c2ccccc2C(C)C)nn1Cc1ccc(-c2ccccc2-c2nnn[nH]2)nc1 [Compound 274]	0.871	35	>180	
30	CCCCc1nc(-c2ccccc2Cl)nn1Cc1ccc(-c2ccccc2-c2nnn[nH]2)nc1 [Compound 278]	3.24	50	>180	
17	CCCCCc1cn(CCCC)c(=O)n1Cc1ccc(-c2ccccc2-c2nnn[nH]2)nc1 [Compound 201]	1.66	10	180	
150	CCCCn1nc(-c2ccccc2Cl)nc1Cc1ccc(-c2ccccc2-c2nnn[nH]2)nc1 [Compound 169]	16.6	15	180	
20	CCCCc1cn(C2CCCCC2(C)C)c(=O)n1Cc1ccc(-c2ccccc2-c2nnn[nH]2)nc1 (stereo not shown) [Compound 248]	20.9	10		
12	CCCCc1nc(CCCC)n(Cc2ccc(-c3cnccc3-c3nnn[nH]3)cc2)n1 [Compound 255]	24.5	20	>180	
37	CCCCc1nn(CC(OCC(=O)OCC)c2ccccc2)c(=O)n1Cc1ccc(-c2ccccc2-c2nn[nH]n2)cc1 (stereo not shown) [Compound 118]	0.617			inhibition in vivo at 10 mg/kg (pressor response to AII; [2]): 70%; Assay C Duration (pressor response to AII; 10 mg/kg intraduodenally): 120 min
9.8	CCCCc1nc(-c2ccccc2C)n(Cc2ccc(-c3ccccc3-c3nnn[nH]3)nc2)n1 [Compound 273]	2.95	25	>180	
0.87	CCCCc1c(C)n(CCCC)c(=O)n1Cc1ccc(-c2ccccc2-c2nnn[nH]2)cc1 [Compound 148]	1580			inhibition in vivo at 3 mg/kg (pressor response to AII; [4]): 92%; Assay C Duration (pressor response to AII; 3 mg/kg intraduodenally): 20 to 30 min

IC50 [1] [nM]	Compound	Kb (rabbit aortic rings) [nM]	inhibition in vivo at 3 mg/kg (pressor response to AII; po, 3 mg/kg intragastrically) [%]	Assay C Duration (pressor response to AII; 3 mg/kg intragastrically) [min]	also measured
3.6	CCCCCn1cc(CCCC)n(Cc2ccc(-c3ccccc3-c3nnn[nH]3)nc2)c1=O [Compound 210]	4.37	15	180	
81	CCCCn1nc(C2OCCCO2)nc1Cc1ccc(-c2ccccc2-c2nnn[nH]2)nc1 [Compound 191]	17.8	10	180	
11	CCCCc1nn(CC2CC2)c(=O)n1Cc1ccc(-c2ccccc2-c2nn[nH]n2)cc1 [Compound 115]	6.31	40	>240	
10	CCCCn1cc(CC(C)C)n(Cc2ccc(-c3ccccc3-c3nnn[nH]3)nc2)c1=O [Compound 199]	1.62	60	>180	
25	CCCCc1nc2c(O)nnc(O)c2n1Cc1ccc(-c2ccccc2C(=O)O)cc1 [Compound 120]	0.891			inhibition in vivo at 10 mg/kg (pressor response to AII; po, 10 mg/kg intragastrically): 80%; Assay C Duration (pressor response to AII; 10 mg/kg intragastrically): 240 min
5.4	CCCCc1cn(CC)c(=O)n1Cc1ccc(-c2ccccc2-c2nnn[nH]2)nc1 [Compound 206]	1.78	30	>180	
6.8	CCCCc1cn(-c2ccccc2CC)c(=O)n1Cc1ccc(-c2ccccc2-c2nnn[nH]2)nc1 [Compound 239]	13.2	20	>180	
18	CCCCc1cn(C(C)C)c(=O)n1Cc1ccc(-c2ccccc2-c2nnn[nH]2)nc1 [Compound 211]	1.82	35	>180	
78000	CCCCc1nc(Cl)n(Cc2ccc(-c3ccccc3-c3nnn[nH]3)cc2)n1 [Compound 20]	1290			inhibition in vivo at 100 mg/kg (pressor response to AII; [5]): 10%; Assay C Duration (pressor response to AII; 100 mg/kg intraduodenally): 45 min
720	CCCCc1nn(CC(OCc2ccccc2)c2ccccc2)c(=O)n1Cc1ccc(-c2ccccc2-c2nn[nH]n2)cc1 (stereo not shown) [Compound 108]	5010			inhibition in vivo at 100 mg/kg (pressor response to AII; [5]): 45%; Assay C Duration (pressor response to AII; 100 mg/kg intraduodenally): 90 min
54	CCCCc1nc(Cl)c(Cl)n1Cc1ccc(-n2cccc2C(=O)O)cc1 [Compound 158]	5.89	30	>180	
12	CCCCn1cc(C2CCCCC2)n(Cc2ccc(-c3ccccc3-c3nnn[nH]3)nc2)c1=O [Compound 202]	1.62	65	>180	
5.8	CCCCc1cn(C2CCCCC2)c(=O)n1Cc1ccc(-c2ccccc2-c2nnn[nH]2)cc1 [Compound 147]	2510			inhibition in vivo at 3 mg/kg (pressor response to AII; [4]): 74%; Assay C Duration (pressor response to AII; 3 mg/kg intraduodenally): 5 to 10 min
10	CCCCCc1nc(CCCCC)n(Cc2ccc(-c3ccccc3-c3nnn[nH]3)cc2)n1 [Compound 24]	27.5			
47	CCCCn1nc(C(C)=O)nc1Cc1ccc(-c2ccccc2-c2nnn[nH]2)nc1 [Compound 194]	22.9			
12000	CCCCc1nc(Cl)n(Cc2ccc(-c3ccccc3C(=O)O)cc2)n1 [Compound 19]	6610			
480	CCCCc1nc(CCC)nn1Cc1ccc(-c2ccccc2-c2nnn[nH]2)cc1 [Compound 25]	158			
41	CCCCc1nc(C(OC)OC)nn1Cc1ccc(-c2ccccc2-c2nnn[nH]2)cc1 [Compound 35]	56.2			
15	CCCCc1nn(/C(Cc2ccccc2)=C(/OCc2ccccc2)c2ccccc2)c(=O)n1Cc1ccc(-c2ccccc2-c2nn[nH]n2)cc1 [Compound 104]	10			

Compound	IC50 [1] [nM]	Kb (rabbit aortic rings) [nM]	inhibition in vivo at 3 mg/kg (pressor response to AII; po, 3 mg/kg intragastrically) [%]	Assay C Duration (pressor response to AII; 3 mg/kg intragastrically) [min]	also measured
C[C@]12CCC(=O)C=C1[C@@H]1CC1[C@H]1[C@@H]3CC[C@@]4(CCC(=O)O4)[C@@]3(C)CC3O[C@]312 (stereo partly shown) [Compound 3]	5.4	2			inhibition in vivo at 10 mg/kg (pressor response to AII; po, 10 mg/kg intragastrically): 50%; inhibition in vivo at 30 mg/kg (pressor response to AII; po, 30 mg/kg intragastrically): 100%; Assay C Duration (pressor response to AII; 10 mg/kg intragastrically): >180 min; Assay C Duration (pressor response to AII; 30 mg/kg intragastrically): 200^+ min.
COC(=O)CC[C@]1(O)CC[C@H]2[C@@H]3[C@H](C(=O)OC)CC4=CC(=O)CC[C@]4(C)C34O[C@@H]4C[C@@]21C (stereo partly shown) [Compound 2]	95	42.7			inhibition in vivo at 10 mg/kg (pressor response to AII; [2]): 95%; inhibition in vivo at 30 mg/kg (pressor response to AII; [3]): 98%; Assay C Duration (pressor response to AII; 10 mg/kg intraduodenally): 60 min; Assay C Duration (pressor response to AII; 30 mg/kg intraduodenally): 90 to 120 min
COC(=O)CC[C@]1(O)CC[C@H]2[C@@H]3C4CC4C4=CC(=O)CC[C@]4(C)[C@]34OC4C[C@@]21C (stereo partly shown) [Compound 7]	84	9.77			inhibition in vivo at 30 mg/kg (pressor response to AII; [3]): 90%; Assay C Duration (pressor response to AII; 30 mg/kg intraduodenally): 130 min
